# According to patent publication US7404943B2, “Methods for solubilizing and recovering fluorinated compounds” (The Regents of the University of California, priority 2001, dated 2008):
# Test: Visual observation of solubility in organic solvent with and without CO2 pressure (windowed vessel)
# Type: physicochemical
# Conditions: 35° C.; for solubility in cyclohexane / solubility in CO2-expanded cyclohexane: 64 mg in 5 mL cyclohexane; for solubility in cyclohexane: 1 atm CO2, visual; for solubility in CO2-expanded cyclohexane: CO2 pressure 59 bar
# Experimental: The bis(methanol) adduct of complex 2 (Rh2(O2C(CF2)9F)4(MeOH)2, 64 mg) was placed in a windowed vessel along with a stir bar and 5 mL of cyclohexane, all at 35° C. […] The CO2 under these conditions is not supercritical and in the absence of the cyclohexane would not be liquid. […] When the CO2 pressure was released (slowly, so that the solvent was not lost by entrainment), then the liquid phase returned to its original volume and colour and the complex precipitated. The IR spectrum of the solid was identical to that of the original Rh2(O2C(CF2)9F)4(MeOH)2.
# The IR spectrum of the complex after precipitation is identical to that of the starting material. […] For example, complex 3 was insoluble in toluene at 26° C., dissolved in CO2-expanded toluene at 54 bar CO2 and was subsequently precipitated after CO2 release.
# [1] = listed as Rh2(O2C(CF2)9F)4(MeOH)2
structure (smiles),measurement,setting,value
"CO.CO.O=C([O-])C(F)(F)C(F)(F)C(F)(F)C(F)(F)C(F)(F)C(F)(F)C(F)(F)C(F)(F)C(F)(F)F.O=C([O-])C(F)(F)C(F)(F)C(F)(F)C(F)(F)C(F)(F)C(F)(F)C(F)(F)C(F)(F)C(F)(F)F.O=C([O-])C(F)(F)C(F)(F)C(F)(F)C(F)(F)C(F)(F)C(F)(F)C(F)(F)C(F)(F)C(F)(F)F.O=C([O-])C(F)(F)C(F)(F)C(F)(F)C(F)(F)C(F)(F)C(F)(F)C(F)(F)C(F)(F)C(F)(F)F.[Rh+3].[Rh+3] [bis(methanol) adduct of complex 2, Rh2(O2C(CF2)9F)4(MeOH)2]",solubility in cyclohexane,,completely insoluble
same,solubility in cyclohexane,[1],insoluble
same,solubility in CO2-expanded cyclohexane,,complete dissolution
same,solubility in CO2-expanded cyclohexane,[1],dissolves readily
same,solubility in gaseous CO2 (upper phase),"59 bar CO2, upper gaseous phase showed no discoloration",no solubility
